According to publication PMC6158167 (Nature Communications, 2018):

Key:
ShHTL7 T190F/C194F = ShHTL7 T190F/C194F (Striga hermonthica, UniProt A0A0M3PNA2, C194F/T190F); experiment: ITC binding to ShHTL7 double mutation; settings: 3 mM KAR1 into 150 μM mutant
Procedure: Supplementary Figure 8. Activity measurements of ShHTL7 mutants. (a-b), Binding analyses of the T190F/C194F double mutation (a) and L124F/T190F/C194F triple mutation (b) of ShHTL7 with KAR1 by ITC (shown in black). The ITC assays were performed by adding 3 mM KAR1 to 150 μM ShHTL7 mutants in the same manner as in Supplementary Figure 3. Results of titrating buffer to 150 μM ShHTL7 mutants are shown in red. The upper panel for each […]
injection (black squares). (c) YLG hydrolytic activity of ShHTL7 and its mutants. As described

[1] = test system: ShHTL1-AtMAX2 interaction; settings: Y2H dilution series, 5 μM ligand
From the text: (§1) Full-length sequences of ShD14, ShHTL1, ShHTL3, ShHTL4, ShHTL7, and AtHTL were cloned into the pGBKT7 vector as bait (Clontech), and the coding regions of ShMAX2 and AtMAX2 were cloned into the pGADT7 vector as prey (Clontech). MAX2 was supposed to be unstable without ASK1. Therefore, AtASK1 was cloned into the N terminus of ShMAX2 and AtMAX2 with a 16-residue linker for co-expression. The bait and prey plasmids were co-transformed into the yeast (Saccharomyces cerevisiae) strain Y2HGold (Clontech) by the lithium acetate-mediated method. The presence of both plasmids was confirmed by growth on SD/-Leu/-Trp (-LT) plates. […] The plates were incubated for 5 days at 30 °C.
(§2) and AtHTL were detected using an anti-GST antibody, as indicated by the black arrows. (b)
(§3) 1/10, 1/20, 1/50, 1/100, 1/1000) of transformed yeast cells was plated on control medium (SD/-
(§4) Leu/-Trp; -LT) and selective medium (SD/-Leu/-Trp/-His/-Ade; -LTHA) in the absence or
(§5) (1 picture or pasted object on this page, not shown here)

[2] = test system: ShHTL1–ShMAX2 interaction; settings: Y2H dilution series, 5 μM ligand
From the text: as §1, §2, §3, §4, §5

[3] = test system: ShHTL3–ShMAX2 interaction; experiment: Y2H assay ShHTL3-ShMAX2; assay type: cell-based, Striga hermonthica; settings: 5 μM ligand
From the text: as §1

ShHTL3 = target: ShHTL3; design: method as in PMID 27507097; settings: ITC; read-out: KD of KAR1 to ShHTL3; cited from earlier work
ShHTL4 = experiment: ITC binding to ShHTL4; design: species or system Striga hermonthica; settings: 3 mM KAR1 into 150 μM protein
Procedure: (§6) The binding assays were performed using a MicroCal iTC200 isothermal titration calorimeter (GE Healthcare). Prior to the ITC experiments, concentrated ShD14, ShHTL1, ShHTL4, and ShHTL7 were exchanged into a buffer consisting of 20 mM HEPES (pH 8.0) and 150 mM NaCl to remove dithiothreitol and were then adjusted to a final concentration of 150 μM. The sample cell was filled with protein solution (204 μL). Nineteen consecutive 2.0-μL aliquots of 3 mM KAR1 (3-methyl-2H-furo [2,3-c] pyran-2-one) were injected into a prepared protein solution at 150 s intervals at 20 °C. The first injection volume was 0.4 μL, and the observed thermal peak was excluded from the data analysis. A negative control was obtained by titrating 3 mM KAR1 into the buffer (20 mM HEPES, pH 8.0, 150 mM NaCl) in the same manner. Data fitting was performed in “one set of sites” mode, and KD values were calculated using Origin software provided by MicroCal.
(§7) Supplementary Figure 3. Binding analyses of ShHTLs and ShD14 with KAR1. The ITC
(§8) assays were performed by adding 3 mM KAR1 to 150 μM ShHTL1 (a), ShHTL4 (b), ShHTL7
(§9) (c), ShD14 (d) and AtHTL (e).
(§10) ShHTL1 and AtHTL were fitted using the MicroCal origin software with the “one binding site”
(§11) model. The ITC assays titrating KAR1 into ShHTL1 and AtHTL were repeated three times
(§12) independently (data not shown).

ShHTL3 and ShMAX2 = experiment: In vitro pull-down ShHTL3-ShMAX2; assay type: binding, Striga hermonthica; settings: 50 μM ligand
Procedure: Ni-NTA pull-down assays were performed with purified ShMAX2 or AtMAX2 as the bait and […]14, or GST-AtD14 as the prey. The molecular weight of the HTL/D14 proteins is nearly the same as that of ASK1; therefore, the HTL/D14 proteins were fused to GST, increasing their molecular weight for detection on SDS-PAGE gels. […] The protein complexes were then eluted with 100 μL of elution buffer containing 50 mM Bis-Tris, pH 6.8, 500 mM NaCl, and 500 mM imidazole and subjected to SDS-PAGE analysis.

ShD14 = experiment: ITC binding to ShD14; design: species or system Striga hermonthica; settings: 3 mM KAR1 into 150 μM protein
Procedure: as §6, §7, §8, §9, §10, §11, §12

Sequence of ShHTL7 T190F/C194F (A0A0M3PNA2 whole entry T190F/C194F): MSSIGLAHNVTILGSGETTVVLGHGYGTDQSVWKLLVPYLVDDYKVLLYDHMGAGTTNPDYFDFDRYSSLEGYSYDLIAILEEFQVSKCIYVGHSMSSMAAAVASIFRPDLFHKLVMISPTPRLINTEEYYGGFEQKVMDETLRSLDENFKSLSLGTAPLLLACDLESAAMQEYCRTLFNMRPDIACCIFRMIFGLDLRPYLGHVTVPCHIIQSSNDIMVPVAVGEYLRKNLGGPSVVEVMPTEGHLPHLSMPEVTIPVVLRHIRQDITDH

## Cc1c2ccocc-2oc1=O [KAR1, 3-methyl-2H-furo [2,3-c] pyran-2-one]
ShHTL7 T190F/C194F
  KAR1 binding by ShHTL7 T190F/C194F: able to bind to KAR1 weakly
[1]
  ligand effect on ShHTL1-AtMAX2 interaction: significant difference between the control and the presence of KAR1 or rac-GR24 was not observed
[2]
  ligand effect on ShHTL1-ShMAX2 interaction: significant difference between the control and the presence of KAR1 or rac-GR24 was not observed
[3]
  ligand-induced ShHTL3-ShMAX2 interaction: failed to interact with ShMAX2 in the presence of KAR1
ShHTL3
  Kd: 78 ± 3 µM
ShHTL4
  KAR1 binding ability of ShHTL4: no significant KAR1 binding ability
ShHTL3 and ShMAX2
  ShHTL3-ShMAX2 interaction in the presence of ligand: no direct interaction with ShMAX2 in the presence of KAR1
ShD14
  KAR1 binding ability of ShD14: no significant KAR1 binding ability
